# From US11213527B2, “Inhibitory effect of low molecular weight compound on cancer and fibrosis” (NATIONAL UNIVERSITY CORPORATION TOTTORI UNIVERSITY, priority 2014, dated 2022)
# Columns and labels:
# [1] = system: HuH7 cells (a liver cancer cell line); test: Inhibitory effect on cancer cells (WST assay); type: cell-based; settings: 0-50 μM; 4 days (concentration-dependent) or 0, 1, 2, 4 days (time-dependent); DMSO control
# Experimental: HuH7 cells (a liver cancer cell line) were cultured in a DMEM on a 10-cm cell culture dish (TPP Techno Plastic Products AG, Trasadingen, Switzerland) at 5% CO2, 37° C., and a humidity of 100%. After the cells were grown to 70 to 90% confluency, 200 μL of a Trypsin/EDTA solution was added thereto to detach the cells. The cells were centrifuged at 1000 rpm for 5 min at room temperature for recovery. Then, the cells in one dish were divided into four dishes and subcultured.
# When a concentration-dependent anti-tumor effect was examined, HuH7 cells at 70 to 90% confluency were collected, and 1×10^4 cells were seeded in each well of a 96-well plate (FALCON). When a time-dependent anti-tumor effect was examined, 5×10^3 cells were seeded. Twenty-four hours after the seeding, the cells were treated with IC-2, PN3-13, or HC-1, and further incubated at 37° C. DMSO was used as a control.
# The concentration of each low-molecular-weight compound was provided below. […] After that, absorbance (at a measurement wavelength of 450 nm/a control wavelength of 600 nm) was measured by a 96-well microplate reader (TECAN, Zurich, Switzerland). The absorbance of cells was calculated by subtracting the absorbance of reagent blank from the measured result, and was then converted to the viable cell count. Also, the IC50 of each low-molecular-weight compound was determined by using an equation: […]
# [2] = system: colon cancer cells (DLD-1, HCT 116, colo 205); test: Anti-tumor effect on colon cancer cells (TetraColor ONE); type: cell-based; settings: 48 hours
# Experimental: Colon cancer cells (DLD-1, HCT 116, colo 205) were cultured in a DMEM on a 10-cm cell culture dish (TPP Techno Plastic Products AG, Trasadingen, Switzerland) at 5% CO2, 37° C., and a humidity of 100%. The cells at 70-90% confluency were split and washed with PBS (−). Next, 300 μL of Trypsin/EDTA was added to 2 mL of PBS (−) and the cells were incubated with this solution at 37° C. for 5 min to detach the cells. Then, 5 mL of DMEM was used to recover the cells. The recovered cells were centrifuged at 1000 rpm for 3 min to remove a supernatant. Then the cells were suspended in DMEM at 1:4 and subcultured.
# First, 5×10^5 colon cancer cells (DLD-1, HCT 116, or colo 205) were seeded on a 96-well plate (TPP). Forty-eight hours after the low-molecular-weight compound treatment, 100 μL of 10% TetraColor ONE (SEIKAGAKU CORPORATION, Tokyo, Japan) was added and the mixture was then incubated at 37° C. After that, absorbance (at a measurement wavelength of 450 nm/a control wavelength of 600 nm) was measured by using a 96-well microplate reader (TECAN, Zurich, Switzerland).
# [3] = system: fibrosis markers TGFβ, α-SMA, and COL1A1; test: Real-time PCR of fibrosis markers in LX-2 cells; type: cell-based, human; settings: compound+TGFβ, with increasing concentration
# Experimental: A human liver stellate cell line (LX-2 cells) was maintained and cultured in a DMEM containing 10% FBS. The cells used for experiments were suspended in a DMEM containing 1% FBS and plated. The cell density was at about 2.0×10^5 cell/cm^2.
# A real-time PCR was carried out to examine an inhibitory effect of each low-molecular-weight compound on fibrosis. The real-time PCR was conducted under conditions indicated in FIG. 55 and the following sections 9.4.1 to 9.4.2. Note that TGFβ, α-SMA, and COL1A1 are fibrosis markers.
# A pre-Mix was prepared by using MilliQ water: 5.2 μL/sample, MgCl2: 0.8 μl/sample, 10 μM primer F: 0.5 μl, 10 μM primer R: 0.5 μl, and LightCycler FastStart DNA Master SYBER Green I (1a+1b): […]/sample. Next, 8 μL of the pre-Mix was pipetted into each well. Then, 2 μL of the sample was added thereto.
# [4] = system: CD44-negative and CD44-positive HuH7 cells; test: Sphere formation capability of sorted HuH7 cells; type: cell-based, human; settings: 50 μM IC-2, 10 μM PN-3-13; one week
# Experimental: First, HuH7 cells were collected. Next, the cells were stained with an anti-human CD44 monoclonal antibody (Cell Signaling Technology Inc., Danvers, Mass., USA)), and then with an Alexa 488-labeled goat anti-mouse IgG antibody. After that, a Beckman Coulter-MoFlo XDP (Beckman Coulter Inc., Fullerton, Calif., USA) was used to sort the cells into a CD44-negative fraction and a CD44-positive fraction. The sorted cells were seeded at 5×10^4 cells/well on a 24-well ultra-low-attachment multiwell plate (Corning, N.Y., USA). Subsequently, the cells were cultured at 37° C. in the presence of 5% CO2 in a DMEM/Nutrient Mixture F-12 Ham (Sigma-Aldrich, St. Louis, Mo., USA) containing 20 ng/mL of recombinant human epidermal growth factor, 20 ng/mL of human basic fibroblast growth factor, 1×B27, and L-glutamine. Twenty-four hours after the plating, 1% DSMO, 50 μM IC-2, and 10 μM PN-3-13 were each added to the corresponding well and the cells were further cultured. One week after the chemical treatment, the number of spheres (with a size of 100 μm or larger) in 15 visual fields/well was counted.
structure (smiles),measurement,setting,value
O=C1[C@H](Cc2ccccc2)N2C(=O)CCN(C(=O)NCc3ccccc3)[C@H]2CN1Cc1cccc2ccccc12 [IC-2],proliferation of HuH7 cells (cell viability),[1],significantly inhibited proliferation
same,inhibitory effect on proliferation of the colon cancer cells,[2],exerted an inhibitory effect on proliferation
same,level of expression of COL1A1,[3]; 24 or 48 hours,decreased
same,level of expression of α-SMA,[3]; 24 or 48 hours,remarkably reduced
same,level of expression of TGFβ,[3]; 24 hours,decreased
same,level of expression of TGFβ,[3]; 48 hours,decreased
same,"formation of spheres, CD44-negative HuH7 cells",[4],inhibited formation of spheres
same,"formation of spheres, CD44-positive HuH7 cells",[4],inhibited formation of spheres
